Values of other authors as cited in patent US8524285B2, “Nutraceutical mangosteen composition” (DBC, LLC, priority 2002, dated 2013).

How the values were obtained:
[1] = molecular target: COX-1 (Homo sapiens, UniProt P23219); settings: constitutive isoform; Nakatani et al. (2002)
[2] = system: prostaglandin E2 synthesis; settings: Nakatani et al. (2002)
[3] = molecular target: T1, type B monoamine oxidase (Homo sapiens, UniProt P27338); settings: Nakatani et al., 63 Biochemical Pharmacology 73-79 (2002)
T1 sequence (P27338 1-520): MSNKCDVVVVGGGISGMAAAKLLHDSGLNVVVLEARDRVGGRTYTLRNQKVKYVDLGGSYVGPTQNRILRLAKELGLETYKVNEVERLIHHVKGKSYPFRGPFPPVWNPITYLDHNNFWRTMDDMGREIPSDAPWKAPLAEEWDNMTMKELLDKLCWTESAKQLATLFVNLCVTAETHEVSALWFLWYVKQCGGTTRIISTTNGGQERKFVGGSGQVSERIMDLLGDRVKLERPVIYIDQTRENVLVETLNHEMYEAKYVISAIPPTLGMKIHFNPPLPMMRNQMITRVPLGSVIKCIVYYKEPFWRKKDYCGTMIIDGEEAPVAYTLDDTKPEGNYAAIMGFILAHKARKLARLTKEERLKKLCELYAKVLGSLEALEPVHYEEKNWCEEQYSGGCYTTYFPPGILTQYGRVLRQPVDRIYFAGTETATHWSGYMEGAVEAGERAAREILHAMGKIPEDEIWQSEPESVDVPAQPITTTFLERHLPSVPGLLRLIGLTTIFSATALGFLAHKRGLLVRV

[4] = molecular target: T2, type A monoamine oxidase (Homo sapiens, UniProt P21397); settings: Nakatani et al., 63 Biochemical Pharmacology 73-79 (2002)
T2 sequence (P21397 1-527): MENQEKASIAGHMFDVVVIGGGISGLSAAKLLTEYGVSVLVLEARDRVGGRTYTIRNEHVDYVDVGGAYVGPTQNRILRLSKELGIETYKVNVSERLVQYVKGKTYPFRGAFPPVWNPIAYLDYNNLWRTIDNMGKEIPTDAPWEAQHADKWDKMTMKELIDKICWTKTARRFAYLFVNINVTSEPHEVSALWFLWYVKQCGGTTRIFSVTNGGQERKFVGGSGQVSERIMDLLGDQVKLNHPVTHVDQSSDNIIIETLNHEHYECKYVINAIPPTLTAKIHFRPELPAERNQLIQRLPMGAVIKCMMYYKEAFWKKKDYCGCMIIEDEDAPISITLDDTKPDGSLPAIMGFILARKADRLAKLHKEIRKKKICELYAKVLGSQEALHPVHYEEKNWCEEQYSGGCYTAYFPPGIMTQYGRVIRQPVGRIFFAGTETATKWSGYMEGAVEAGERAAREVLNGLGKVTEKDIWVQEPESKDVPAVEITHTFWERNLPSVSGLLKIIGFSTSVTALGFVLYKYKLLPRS

Sequence of COX-1 (P23219 24-599): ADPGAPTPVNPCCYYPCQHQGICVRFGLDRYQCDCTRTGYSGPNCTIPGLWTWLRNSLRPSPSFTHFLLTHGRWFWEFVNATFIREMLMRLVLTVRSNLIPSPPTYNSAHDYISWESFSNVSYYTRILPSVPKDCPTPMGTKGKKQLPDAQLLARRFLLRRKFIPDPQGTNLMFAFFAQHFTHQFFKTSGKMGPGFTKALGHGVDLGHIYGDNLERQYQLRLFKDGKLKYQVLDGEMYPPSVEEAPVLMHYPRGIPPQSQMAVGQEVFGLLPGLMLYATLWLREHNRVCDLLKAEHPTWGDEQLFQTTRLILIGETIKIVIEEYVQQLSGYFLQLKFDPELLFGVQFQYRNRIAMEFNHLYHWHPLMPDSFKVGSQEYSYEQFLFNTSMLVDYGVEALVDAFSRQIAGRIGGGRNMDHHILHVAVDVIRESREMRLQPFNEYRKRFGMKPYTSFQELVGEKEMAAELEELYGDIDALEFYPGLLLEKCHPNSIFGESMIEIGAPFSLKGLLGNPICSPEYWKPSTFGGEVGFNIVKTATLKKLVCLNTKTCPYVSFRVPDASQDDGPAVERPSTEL

CC(C)=CCc1c(O)cc2oc3cc(O)c(O)c(CC=C(C)C)c3c(=O)c2c1O [γ-mangostin]
inhibition of COX-1 activity [1]: directly inhibit | inhibition of prostaglandin E2 synthesis [2]: inhibits | inhibition of type B monoamine oxidase [3]: inhibits | inhibition of type A monoamine oxidase [4]: inhibits
